In the SangsterLogP compilation one finds logP and logD data, which are given here for 51 compounds.

A short description of the data set: method code SF, from Hansch, C. & Leo, A. (1987). Log P database [Dataset]. Pomona College Medicinal Chemistry Project.

Turning to `CCOc1ccccc1`, the logP was determined as 2.51.

Turning to `CCOCCOC(=O)C(C#N)=CC(C)(C)NCc1ccc(Cl)cc1`, the logP amounted to 4.05.

For `CC(=O)Nc1cccc(NC(C)=O)c1`, the logP stood at 0.5.

`O=S1(=O)NC(C2CCCCC2)=Nc2ccccc21` came in with a logP of 2.2.

As to `CCC(=O)CCCN(C)c1ccc(S(=O)(=O)N(C)C)cc1`, the log partition coefficient (logP) came to 0.71.

On to `OC(CF)CF`, for which the lipophilicity (logP) was -0.36.

`CCC(=O)O[C@]1(C(=O)CO)[C@H](C)C[C@H]2[C@@H]3C[C@H](F)C4=CC(=O)C(Cl)=C[C@]4(C)[C@@]3(F)[C@@H](O)C[C@@]21C` showed a log partition coefficient (logP) of 2.99.

Regarding `Cc1c(N2CCOCC2)c(=O)n(-c2ccccc2)c(=O)n1C`, the logD (pH 7.4) is 0.69.

Where the note is “pH 2.0”, `CCC1(CC2COc3ccccc3O2)C(=O)NC(=O)NC1=O` (stereo unspecified) registered a logD of 1.85.

For the compound `CC1CCCN(N=O)C1=O` (stereo unspecified), the logP was -0.66.

As for `NC(N)=Nc1ccccc1`, the logP came out at 0.53.

With `CCOC(=O)C(=Cc1ccccc1Cl)C(C)=O`, the logP was 2.84.

`O=P1(NCCCl)OCCCN1CCCl` (stereo unspecified) had a log partition coefficient (logP) of 0.86.

On to `CCOC(=O)C(=Cc1ccc(Cl)cc1Cl)C(=O)OCC`, for which the logP was determined as 3.49.

Take `O=C(NN=Cc1ccccc1)c1ccccc1`: the logP is 2.56.

Regarding `O=C(c1ccncc1)c1ccc(O)cc1`, the logP came out at 1.37.

Under “pH 13.0”, `CC(=O)Nc1cccc(OCc2cccc(N3C(N)=NC(N)=NC3(C)C)c2)c1` showed a pH-dependent lipophilicity (logD) of 1.15.

On to `CCCCCC(C)O` (stereo unspecified), for which the logP was determined as 2.31.

In turn, `CCNP(=O)(OC)Oc1cc(Cl)c(Cl)cc1Cl` (stereo unspecified) gave a logP of 3.18.

In turn, `C=C(C)C` displayed a logP of 2.34.

Regarding `CN(C)/N=N/c1ccc(C#N)cc1`, the logP came out at 2.35.

`O=c1cnc2ccccc2[nH]1` came in with a logP of 0.8.

For `O=c1cncc[nH]1`, the logP was -1.49.

For `O=CC(CO)OC(C=O)n1cnc2c(O)ncnc21` (stereo unspecified), the logP was -2.11.

`COc1ccc(CN(CCN(C)C)c2ccccn2)cc1` displayed a logP of 2.85.

Compound `O=C(CNC(=O)c1ccccc1)Oc1cccc(F)c1` registered a logP of 2.58.

On to `C1OC1CN1CCN(CC2CO2)CC1` (stereo unspecified), for which the logP is -0.84.

Take `C/N=C(\NC)NC#N`: the lipophilicity (logP) is -0.4.

`Cc1ccc(Cc2c[nH]c(NCCCCc3ccc(Br)cc3C)nc2=O)cn1` came in with a lipophilicity (logP) of 3.61.

For the compound `CCC(C)C(=O)Nc1ccc(Cl)c(Cl)c1` (stereo unspecified), the lipophilicity (logP) came to 4.11.

The compound `CCC1(c2ccccc2)C(=O)NCNC1=O` returned a log partition coefficient (logP) of 0.91.

Where the note is “pH 7.0”, `COc1cccc(C(C)=O)c1` had a logD of 1.84.

In turn, `COc1cc(C=NOC(=O)c2cc(OC)c(OC)c(OC)c2)ccc1OCCO` showed a logP of 2.7.

In turn, `CC(=O)OCCC(=O)N(C)c1ccc(S(=O)(=O)N(C)C)cc1` showed a log partition coefficient (logP) of 0.26.

`CCc1cnc(C=Cc2ccc([N+](=O)[O-])o2)nc1` came in with a lipophilicity (logP) of 1.55.

On to `COC1OC(=O)c2ccccc21` (stereo unspecified), for which the logP amounted to 1.

Compound `CC(=O)Oc1cccc([N+](=O)[O-])c1` came in with a logP of 1.82.

For `CC1=Nc2ccc([N+](=O)[O-])cc2S(=O)(=O)N1`, the log partition coefficient (logP) worked out at 0.65.

Take `O=[N+]([O-])Cc1ccccc1`: the lipophilicity (logP) is 1.75.

The compound `CC1=NCCN1CCO` came in with a log partition coefficient (logP) of 0.04.

`CC(=O)Nc1ccc(C(N)=O)cc1`: the logP was found to be 0.01.

`CCCCCCC1OC(=O)c2cc(N)ccc21` (stereo unspecified) registered a lipophilicity (logP) of 3.65.

Compound `CCOP(=S)(Oc1ccc(C#N)cc1)c1ccccc1` (stereo unspecified) registered a log partition coefficient (logP) of 4.29.

In turn, `c1ccc(-n2cnnn2)cc1` showed a logP of 1.09.

`C(#Cc1ccccc1)c1ccccc1` showed a logP of 4.78.

For `CS(=O)(=O)OCCCCOS(C)(=O)=O`, the logP was -0.52.

With `CC1=Nc2c(C)cccc2S(=O)(=O)N1`, the logP came to 0.52.

The compound `CCCCCCCCC1OC(=O)c2ccccc21` (stereo unspecified) returned a lipophilicity (logP) of 3.94.

`CC(=O)Nc1ccccc1C(F)(F)F` came in with a log partition coefficient (logP) of 1.11.

Turning to `N#Cc1c(N)sc2ccccc12`, the log partition coefficient (logP) worked out at 2.17.

As to `O=C(O)c1ccc(NCc2ccccc2)cc1`, the logP is 2.44.
